Measurements taken from ChEMBL document CHEMBL1201862, “PubChem BioAssay data set” (2004).
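How tested: cells in 96-well plates exposed to compound for 48 hours at five concentrations. The concentration for 50% growth inhibition is given as GI50.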 The source made the active and inactive calls. No stated cut-off is given here; in the data, active = GI50 up to about 1.1 µM and inactive = higher.

What was measured:
Test in all cases: NCI tumour cell line growth inhibition, 48 h
[1] = system: KM12
[2] = system: M14
[3] = system: T47D
[4] = system: SNB-75
[5] = system: PC-3
[6] = system: OVCAR-4
[7] = system: HOP-62
[8] = system: NCI/ADR-RES
[9] = system: HT-29
[10] = system: A498
[11] = system: TK-10
[12] = system: U-251
[13] = system: NCI-H460
[14] = system: SR
[15] = system: Hs-578T
[16] = system: HCT-15
[17] = system: SF-539
[18] = system: MOLT-4
[19] = system: SF-295
[20] = system: SK-MEL-2
[21] = system: RPMI-8226
[22] = system: NCI-H226
[23] = system: RXF 393
[24] = system: EKVX
[25] = system: DU-145
[26] = system: HCT-116
[27] = system: UACC-257
[28] = system: MDA-MB-231
[29] = system: CCRF-CEM
[30] = system: NCI-H23
[31] = system: ACHN
[32] = system: BT-549
[33] = system: COLO 205
[34] = system: HCC 2998
[35] = system: MDA-MB-435
[36] = system: SK-MEL-5
[37] = system: NCI-H522
[38] = system: SN12C
[39] = system: MDA-N
[40] = system: SK-OV-3
[41] = system: OVCAR-5
[42] = system: K562
[43] = system: HOP-92
[44] = system: SW-620
[45] = system: Malme-3M
[46] = system: OVCAR-3
[47] = system: LOX IMVI
[48] = system: CAKI-1
[49] = system: HL-60
[50] = system: SF-268
[51] = system: SNB-19
[52] = system: IGROV-1
[53] = system: UACC-62
[54] = system: 786-0
[55] = system: OVCAR-8
[56] = system: SK-MEL-28
[57] = system: A549
[58] = system: UO-31

With `Clc1ccc(/C=N/C23CC4CC(CC(C4)C2)C3)c(Cl)c1` as the molecule, how does the GI50 [1] read?
Its GI50 is > 10 µM (inactive).

And the GI50 [2]?
The GI50 was > 10 µM (inactive).

And the GI50 [3]?
Its GI50 is > 10 µM (inactive).

And the GI50 [4]?
Its GI50 is > 10 µM (inactive).

And the GI50 [5]?
Its GI50 is > 10 µM (inactive).

And the GI50 [6]?
The GI50 was > 10 µM (inactive).

And the GI50 [7]?
Its GI50 is > 10 µM (inactive).

And the GI50 [8]?
Its GI50 is > 10 µM (inactive).

What about the GI50 [9] of the same molecule?
Its GI50 is > 10 µM (inactive).

And the GI50 [10]?
Its GI50 is > 10 µM (inactive).

And the GI50 [11]?
Its GI50 is > 10 µM (inactive).

And the GI50 [12]?
Its GI50 is > 10 µM (inactive).

What about the GI50 [13] of the same molecule?
Its GI50 is > 10 µM (inactive).

And the GI50 [14]?
Its GI50 is 3.5 µM (inactive).

And the GI50 [15]?
Its GI50 is > 10 µM (inactive).

What about the GI50 [16] of the same molecule?
Its GI50 is over 10 µM.

And the GI50 [17]?
The GI50 was > 10 µM (inactive).

What about the GI50 [18] of the same molecule?
The GI50 was > 10 µM (inactive).

And the GI50 [19]?
Its GI50 is > 10 µM (inactive).

And the GI50 [20]?
The GI50 was > 10 µM (inactive).

What about the GI50 [21] of the same molecule?
Its GI50 is > 10 µM (inactive).

What about the GI50 [22] of the same molecule?
The GI50 was > 10 µM (inactive).

And the GI50 [23]?
The GI50 was > 10 µM (inactive).

What about the GI50 [24] of the same molecule?
Its GI50 is > 10 µM (inactive).

And the GI50 [25]?
The GI50 was > 10 µM (inactive).

And the GI50 [26]?
Its GI50 is > 10 µM (inactive).

And the GI50 [27]?
The GI50 was > 10 µM (inactive).

What about the GI50 [28] of the same molecule?
The GI50 was > 10 µM (inactive).

And the GI50 [29]?
Its GI50 is > 10 µM (inactive).

And the GI50 [30]?
Its GI50 is > 10 µM (inactive).

And the GI50 [31]?
Its GI50 is > 10 µM (inactive).

What about the GI50 [32] of the same molecule?
The GI50 was > 10 µM (inactive).

What about the GI50 [33] of the same molecule?
The GI50 was > 10 µM (inactive).

What about the GI50 [34] of the same molecule?
Its GI50 is > 10 µM (inactive).

What about the GI50 [35] of the same molecule?
The GI50 was > 10 µM (inactive).

And the GI50 [36]?
Its GI50 is > 10 µM (inactive).

And the GI50 [37]?
The GI50 was > 10 µM (inactive).

And the GI50 [38]?
The GI50 was > 10 µM (inactive).

And the GI50 [39]?
Its GI50 is > 10 µM (inactive).

And the GI50 [40]?
The GI50 was > 10 µM (inactive).

What about the GI50 [41] of the same molecule?
Its GI50 is > 10 µM (inactive).

What about the GI50 [42] of the same molecule?
Its GI50 is > 10 µM (inactive).

What about the GI50 [43] of the same molecule?
Its GI50 is > 10 µM (inactive).

What about the GI50 [44] of the same molecule?
The GI50 was > 10 µM (inactive).

What about the GI50 [45] of the same molecule?
The GI50 was > 10 µM (inactive).

And the GI50 [46]?
The GI50 was > 10 µM (inactive).

What about the GI50 [47] of the same molecule?
The GI50 was > 10 µM (inactive).

What about the GI50 [48] of the same molecule?
Its GI50 is > 10 µM (inactive).

What about the GI50 [49] of the same molecule?
The GI50 was > 10 µM (inactive).

And the GI50 [50]?
Its GI50 is > 10 µM (inactive).

And the GI50 [51]?
Its GI50 is > 10 µM (inactive).

What about the GI50 [52] of the same molecule?
Its GI50 is > 10 µM (inactive).

What about the GI50 [53] of the same molecule?
Its GI50 is > 10 µM (inactive).

What about the GI50 [54] of the same molecule?
Its GI50 is > 10 µM (inactive).

And the GI50 [55]?
Its GI50 is > 10 µM (inactive).

What about the GI50 [56] of the same molecule?
Its GI50 is > 10 µM (inactive).

And the GI50 [57]?
The GI50 was > 10 µM (inactive).

How did the GI50 [1] turn out when `Cc1ccc(C(=O)C2C=C(c3ccc(C)cc3)SC3C=CCC32)cc1` (configuration not stated) was run?
Its GI50 is 15 µM (inactive).

What about the GI50 [2] of the same molecule?
The GI50 was 19.6 µM (inactive).

And the GI50 [3]?
The GI50 was 20.5 µM (inactive).

And the GI50 [5]?
Its GI50 is 18.1 µM (inactive).

What about the GI50 [6] of the same molecule?
The GI50 was 30.5 µM (inactive).

What about the GI50 [7] of the same molecule?
Its GI50 is 20.3 µM (inactive).

What about the GI50 [8] of the same molecule?
Its GI50 is 18.5 µM (inactive).

And the GI50 [9]?
Its GI50 is 21.4 µM (inactive).

And the GI50 [10]?
The GI50 was 24.7 µM (inactive).

And the GI50 [11]?
Its GI50 is 25.3 µM (inactive).

And the GI50 [12]?
The GI50 was 17.9 µM (inactive).

And the GI50 [13]?
Its GI50 is 16.9 µM (inactive).

And the GI50 [14]?
Its GI50 is 12.6 µM (inactive).

And the GI50 [15]?
The GI50 was 26.1 µM (inactive).

What about the GI50 [16] of the same molecule?
The GI50 was 21.6 µM.

And the GI50 [17]?
Its GI50 is 17.9 µM (inactive).

What about the GI50 [18] of the same molecule?
Its GI50 is 12.1 µM (inactive).

And the GI50 [19]?
The GI50 was 19.1 µM (inactive).

And the GI50 [20]?
The GI50 was 16.1 µM (inactive).

What about the GI50 [21] of the same molecule?
Its GI50 is 16.3 µM (inactive).

What about the GI50 [22] of the same molecule?
The GI50 was 27.2 µM (inactive).

And the GI50 [23]?
Its GI50 is 21 µM (inactive).

And the GI50 [24]?
The GI50 was 34.8 µM (inactive).

What about the GI50 [25] of the same molecule?
Its GI50 is 32.3 µM (inactive).

What about the GI50 [26] of the same molecule?
The GI50 was 13.5 µM (inactive).

What about the GI50 [27] of the same molecule?
The GI50 was 21.7 µM (inactive).

What about the GI50 [28] of the same molecule?
The GI50 was 25.1 µM (inactive).

What about the GI50 [29] of the same molecule?
Its GI50 is 13.6 µM (inactive).

What about the GI50 [30] of the same molecule?
The GI50 was 24.2 µM (inactive).

And the GI50 [31]?
The GI50 was 20.5 µM (inactive).

What about the GI50 [32] of the same molecule?
The GI50 was 18.3 µM (inactive).

And the GI50 [33]?
The GI50 was 22.1 µM (inactive).

And the GI50 [35]?
The GI50 was 14.4 µM (inactive).

What about the GI50 [36] of the same molecule?
The GI50 was 15.5 µM (inactive).

What about the GI50 [58] of the same molecule?
Its GI50 is 16.1 µM (inactive).

And the GI50 [37]?
The GI50 was 15.3 µM (inactive).

And the GI50 [38]?
The GI50 was 17.2 µM (inactive).

And the GI50 [39]?
The GI50 was 14.8 µM (inactive).

And the GI50 [40]?
The GI50 was 25.2 µM (inactive).

And the GI50 [41]?
Its GI50 is 18.4 µM (inactive).

What about the GI50 [42] of the same molecule?
The GI50 was 27.7 µM (inactive).

What about the GI50 [43] of the same molecule?
The GI50 was 17.8 µM (inactive).

And the GI50 [44]?
Its GI50 is 15.8 µM (inactive).

What about the GI50 [45] of the same molecule?
The GI50 was 16.3 µM (inactive).

And the GI50 [46]?
The GI50 was 17 µM (inactive).

What about the GI50 [47] of the same molecule?
Its GI50 is 18.4 µM (inactive).

And the GI50 [48]?
The GI50 was 18.9 µM (inactive).

What about the GI50 [49] of the same molecule?
Its GI50 is 8.95 µM (inactive).

What about the GI50 [51] of the same molecule?
Its GI50 is 30 µM (inactive).

And the GI50 [52]?
Its GI50 is 19.6 µM (inactive).

What about the GI50 [53] of the same molecule?
The GI50 was 17.9 µM (inactive).

And the GI50 [54]?
The GI50 was 19.5 µM (inactive).

And the GI50 [55]?
Its GI50 is 17 µM (inactive).

And the GI50 [56]?
Its GI50 is 17.4 µM (inactive).

What about the GI50 [57] of the same molecule?
Its GI50 is 22.9 µM (inactive).
